According to patent US7989464B2, “mGluR1 antagonists as therapeutic agents” (Schering Corporation, priority 2004, dated 2011):
Where two headings read alike, the source gives them in different places.

Molecular target: T1, hmGluR1 receptor (Homo sapiens, UniProt Q13255)
T1 construct: expressed in transfected cells
Assay: IC50 determination: intracellular calcium mobilization (FLIPR) upon Quisqualate stimulation in CHO cells stably expressing hmGluR1
Type: cell-based
Details: against Quisqualate 1 μM (EC80)
Summary of the method: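 CHO cells stably expressing hmGluR1 were kept overnight in DMEM high glucose with GPT and 1 mM pyruvate, then loaded 2 h with Calcium 3 dye.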

[1] = class symbols, read-out: mGIuR 1 IC50
[2] = FLIPR calcium mobilization, read-out: IC50 Class
[3] = FLIPR calcium mobilization, read-out: mGluR1 IC50

T1 sequence (Q13255 19-1194): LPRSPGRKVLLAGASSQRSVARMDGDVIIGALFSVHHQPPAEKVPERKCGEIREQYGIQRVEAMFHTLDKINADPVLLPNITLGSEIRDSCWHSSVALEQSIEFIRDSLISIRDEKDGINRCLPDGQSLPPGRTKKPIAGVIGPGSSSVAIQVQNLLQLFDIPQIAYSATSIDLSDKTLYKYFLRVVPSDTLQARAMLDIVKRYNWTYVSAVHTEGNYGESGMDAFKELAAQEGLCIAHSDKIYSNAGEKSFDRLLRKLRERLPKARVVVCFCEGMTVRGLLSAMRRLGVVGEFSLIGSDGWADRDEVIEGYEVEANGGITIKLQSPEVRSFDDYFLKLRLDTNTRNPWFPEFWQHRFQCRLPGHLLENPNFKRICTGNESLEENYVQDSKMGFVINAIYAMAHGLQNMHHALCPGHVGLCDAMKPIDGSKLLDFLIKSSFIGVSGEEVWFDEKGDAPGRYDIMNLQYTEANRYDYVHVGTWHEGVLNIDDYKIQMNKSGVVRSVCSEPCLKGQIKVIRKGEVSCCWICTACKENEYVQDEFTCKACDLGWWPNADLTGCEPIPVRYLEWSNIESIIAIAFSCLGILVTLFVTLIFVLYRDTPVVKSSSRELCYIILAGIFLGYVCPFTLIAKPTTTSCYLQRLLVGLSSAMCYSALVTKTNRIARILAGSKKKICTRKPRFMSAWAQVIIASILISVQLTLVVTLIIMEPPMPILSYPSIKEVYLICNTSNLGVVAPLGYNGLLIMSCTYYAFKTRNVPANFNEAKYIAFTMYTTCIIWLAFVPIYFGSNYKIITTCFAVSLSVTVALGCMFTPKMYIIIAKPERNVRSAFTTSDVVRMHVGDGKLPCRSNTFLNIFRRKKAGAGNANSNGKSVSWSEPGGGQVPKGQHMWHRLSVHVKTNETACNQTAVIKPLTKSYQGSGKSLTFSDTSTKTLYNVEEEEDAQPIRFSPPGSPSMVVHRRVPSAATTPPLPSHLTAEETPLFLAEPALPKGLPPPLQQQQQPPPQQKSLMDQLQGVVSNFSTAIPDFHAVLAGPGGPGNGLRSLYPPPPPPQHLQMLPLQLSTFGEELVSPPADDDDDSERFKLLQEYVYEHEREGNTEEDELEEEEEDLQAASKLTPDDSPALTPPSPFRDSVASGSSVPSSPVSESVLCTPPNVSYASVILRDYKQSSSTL

| IC50 [1] [nM] | IC50 [2] [nM] | SMILES | also measured |
| --- | --- | --- | --- |
|  | > 1000 | COc1ccc(Nc2ncnc3sc4c(=O)n(C)cnc4c23)cc1 [95GN] |  |
| 150 to 1000 |  | Cc1ccc(-n2cnc3c4c(N(C)C)ccnc4n(C)c3c2=O)cc1 [134A] |  |
|  | 150 to 1000 | CN(C)c1cccc2sc3c(=O)n(-c4cc(F)cc(F)c4)cnc3c12 [103Q] |  |
| 150 to 1000 |  | CN(C)c1cccc2sc3c(=O)n(-c4ccc5scnc5c4)cnc3c12 [103F] |  |
| 50 to 150 |  | CCOC(=O)c1cnc2sc3c(=O)n(-c4ccc(C)cc4)cnc3c2c1 [144A] |  |
| > 1000 |  | CN(C)c1ccnc2c1c1ncn(C3CCCCC3)c(=O)c1n2C [134G] |  |
|  | 50 to 150 | C=C(C)CNc1ncnc2sc3c(=O)n(-c4ccc(OC)c(F)c4)cnc3c12 [95FB] |  |
|  | 150 to 1000 | CNc1cccc2sc3c(=O)n(-c4ccc(Cl)cc4)cnc3c12 [103R] |  |
|  | 50 to 150 | Cc1nc(N)c2c(n1)sc1c(=O)n(-c3ccc(F)cc3)cnc12 [95EW] |  |
|  | > 1000 | CCOC(=O)c1cnc2sc3c(=O)n(-c4ccc(OC)cc4)cnc3c2c1 [144B] |  |
|  | < 50 | C=CCNc1ncnc2sc3c(=O)n(-c4ccc5scnc5c4)cnc3c12 [95BM] |  |
| 50 to 150 |  | COc1ccc(-n2cnc3c(sc4cccc(N(C)C)c43)c2=O)cc1 [103E] |  |
|  | 150 to 1000 | CNc1nncc2sc3c(=O)n(-c4ccc(C)cc4)cnc3c12 [167H] |  |
|  | < 50 | C=C(C)CNc1ncnc2sc3c(=O)n(C4CCCC4)cnc3c12 [95FL] |  |
|  | > 1000 | Cc1ccc(-n2cnc3c(sc4cnnc(NCC(F)(F)F)c43)c2=O)cc1 [167G] |  |
| 50 to 150 |  | CCCN(C)c1ccnc2sc3c(=O)n(-c4ccc(C)cc4)c(C)nc3c12 [113M] |  |
|  | < 50 | C=C(C)CNc1ncnc2sc3c(=O)n(-c4ccc5c(c4)OCCO5)cnc3c12 [95FF] |  |
|  | < 50 | CN(C)c1ncnc2sc3c(=O)n(-c4ccc(C5CC5)cc4)cnc3c12 [137D] |  |
|  | 150 to 1000 | C=C(C)CNc1ncnc2sc3c(=O)n(-c4ccncc4)cnc3c12 [95FJ] |  |
|  | < 50 | C=C(C)CNc1ncnc2sc3c(=O)n(-c4ccccc4)cnc3c12 [95FH] |  |
|  | 150 to 1000 | Cc1ccc(-n2cnc3c(sc4ncnc(NCC5CCCO5)c43)c2=O)cc1 (centres unmarked) [95FQ] |  |
|  | < 50 | CNc1ncnc2sc3c(=O)n(-c4ccc(OC)cc4F)cnc3c12 [95BI] | IC50 [3]: 28.3 nM |
| < 50 |  | CCNc1ncnc2sc3c(=O)n(-c4ccc(OC(F)F)cc4)cnc3c12 [95W] |  |
|  | > 1000 | COc1ccnc2sc3c(=O)n(-c4ccc5c(c4)OCCO5)cnc3c12 [161B] |  |
|  | > 1000 | CN(C)c1cccc2sc3c(=O)n(-c4cccc(Cl)c4)cnc3c12 [103H] |  |
|  | < 50 | C#CCNc1ncnc2sc3c(=O)n(-c4ccc(OC)cc4)cnc3c12 [95EI] |  |

Further lines, the compound ahead of its results:

| SMILES | IC50 [1] [nM] | IC50 [2] [nM] | also measured |
| --- | --- | --- | --- |
| CCc1ccc(-n2cnc3c(sc4nccc(NC)c43)c2=O)cc1 [7CC] | < 50 |  |  |
| CCc1ncnc2sc3c(=O)n(-c4ccc(Cl)cc4)cnc3c12 [compound 202] |  | < 50 |  |
| Cc1ccc(-n2cnc3c(sc4nccc(N(C)C)c43)c2=O)cc1I [7DY] | 50 to 150 |  |  |
| C=CCN(C)c1ccnc2sc3c(=O)n(-c4ccc(C)cc4)cnc3c12 [28AC] | < 50 |  |  |
| C#CCNc1ccnc2sc3c(=O)n(-c4ccc(OC)c(F)c4)cnc3c12 [28DW] |  | < 50 |  |
| COc1ccc(-n2cnc3c(sc4nccc(N5CC(O)C5)c43)c2=O)cc1 [28DJ] |  | 50 to 150 |  |
| CCNc1ccnc2sc3c(=O)n(-c4ccc5c(c4)OCCO5)cnc3c12 [28BY] |  | < 50 |  |
| O=c1c2sc3nccc(N4CCCC4)c3c2ncn1-c1ccc(F)cc1 [28GW] |  | 150 to 1000 |  |
| C=Cc1ccnc2sc3c(=O)n(-c4ccc(Cl)cc4)cnc3c12 [29E] |  | < 50 |  |
| CC#CCOc1ccnc2sc3c(=O)n(-c4ccc(C)cc4)cnc3c12 [66B] | > 1000 |  |  |
| O=c1c2sc3nccc(NCCO)c3c2ncn1C1CCCCC1 [28AG] | 50 to 150 |  |  |
| CN(C)c1ccnc2sc3c(=O)n(-c4ccc(OC(F)(F)F)cc4)cnc3c12 [7Y] | < 50 |  |  |
| Cc1ccc(-n2cnc3c(sc4nc(N5CCCC5)nc(N)c43)c2=O)cc1 [71C] |  | > 1000 |  |
| COc1ccc(-n2cnc3c(sc4nccc(N5CCC5)c43)c2=O)cc1 [28AM] | 50 to 150 |  |  |
| CN(C)c1ccnc2sc3c(=O)n(C4CCC4)cnc3c12 [15J] | 50 to 150 |  |  |
| Cc1ccc(-n2cnc3c(sc4nccc(NC[C@@H](C)O)c43)c2=O)cc1 [29A] | 150 to 1000 |  |  |
| C=CCNc1ccnc2sc3c(=O)n(-c4ccc(Cl)cc4)cnc3c12 [28DY] |  | 50 to 150 |  |
| CN(C)c1cncc2sc3c(=O)n(-c4ccc5scnc5c4)cnc3c12 [37B] | 150 to 1000 |  |  |
| CCNc1ccnc2sc3c(=O)n(-c4ccc(F)cc4)cnc3c12 [28HY] |  | < 50 |  |
| CN(C)c1ccnc2sc3c(=O)n(C(C)(C)C)cnc3c12 [15P] | 150 to 1000 |  |  |

| SMILES | IC50 [1] [nM] | IC50 [2] [nM] | also measured |
| --- | --- | --- | --- |
| CCCNc1ccnc2sc3c(=O)n(-c4ccc(OC)cc4)cnc3c12 [28AR] | < 50 |  |  |
| Cc1ccc(-n2cnc3c(sc4nccc(N5CC[C@H](O)C5)c43)c2=O)cc1 [28CU] |  | > 1000 |  |
| CCN(CC)c1ccnc2sc3c(=O)n(C4CCCCC4)cnc3c12 [28J] | 150 to 1000 |  |  |
| COCCCNc1ccnc2sc3c(=O)n(-c4ccc(Cl)cc4)cnc3c12 [28GN] |  | < 50 |  |
| Cc1ccc(-n2cnc3c(sc4nccc(N(C)N)c43)c2=O)cc1 [28AE] | < 50 |  |  |
| Nc1ccnc2sc3c(=O)n(C4CCCCC4)cnc3c12 [72A] | < 50 |  |  |
| CN(C)c1ccnc2sc3c(=O)n(-c4ccc5c(c4)OCCO5)cnc3c12 [7AC] | < 50 |  | IC50 [3]: 1.84 nM |
| COc1ccc(-n2cnc3c(sc4nccc(N(C)C)c43)c2=O)c(C)c1 [7DI] | < 50 |  |  |
| COc1cccc(-n2cnc3c(sc4nc(N5CCOCC5)c5c(c43)CC(C)(C)OC5)c2=O)c1 [P-4] | 150 to 1000 |  |  |
| CN(CC(O)CO)c1ccnc2sc3c(=O)n(-c4ccc(Cl)cc4)cnc3c12 (centres unmarked) [28HQ] |  | 50 to 150 |  |
| O=c1c2sc3nccc(OCCO)c3c2ncn1-c1ccc(Cl)cc1 [66H] |  | > 1000 |  |
| C=CCOc1ccnc2sc3c(=O)n(-c4ccc(Br)cc4)cnc3c12 [66J] |  | < 50 |  |
| COc1ccc(-c2c(C(C)=O)c(C)nc3sc4c(=O)n(-c5ccc(Cl)cc5)cnc4c23)cc1 [P-11] | 150 to 1000 |  |  |
| CN(C)c1ccnc2sc3c(=O)n(N4CCCCC4)cnc3c12 [60A] | < 50 |  |  |
| CC(C)c1ccnc2sc3c(=O)n(-c4ccc(Cl)cc4)cnc3c12 [29J] |  | < 50 |  |
| O=c1c2sc3nccc(NC4CC4)c3c2ncn1-c1cccc(F)c1 [28CN] |  | < 50 |  |
| O=c1c2sc3nccc(N4CCCC4)c3c2ncn1-c1ccc(Cl)cc1 [28GF] |  | < 50 |  |
| CN(C)c1ccnc2sc3c(=O)n(CC4CCCCC4)cnc3c12 [15C] | < 50 |  |  |
| COc1cc(N(C)C)c2c(n1)sc1c(=O)n(-c3ccc(C)cc3)cnc12 [compound 58] | < 50 |  |  |
| CN(C)c1ccnc2sc3c(=O)n(C4CCCCCC4)cnc3c12 [7X] | < 50 |  | IC50 [3]: 0.68 nM |

| SMILES | IC50 [1] [nM] | IC50 [2] [nM] | also measured |
| --- | --- | --- | --- |
| COCCCNc1ccnc2sc3c(=O)n(-c4ccc(OS(=O)(=O)C(F)(F)F)cc4)cnc3c12 [28HX] |  | 150 to 1000 |  |
| CSc1ccc(-n2cnc3c(sc4nccc(N(C)C)c43)c2=O)cc1 [7CQ] | < 50 |  |  |
| COc1ccc(-n2cnc3c(sc4nccc(NCC(F)(F)F)c43)c2=O)c(C)c1 [28BP] |  | 150 to 1000 |  |
| Cc1ccc(-n2cnc3c(sc4nccc(C(C)C)c43)c2=O)cc1 [29F] |  | < 50 |  |
| CCCCNc1ccnc2sc3c(=O)n(C4CCCCC4)cnc3c12 [28R] | 150 to 1000 |  |  |
| CN(C)c1ccnc2sc3c(=O)n(-c4ccc5c(c4)oc(=O)n5C)cnc3c12 [7AR] | > 1000 |  |  |
| CCCCn1cnc2c(sc3nccc(N(C)C)c32)c1=O [7P] | 50 to 150 |  |  |
| CNc1c(Cl)cnc2sc3c(=O)n(C4CCCCC4)cnc3c12 [compound 42] | 50 to 150 |  |  |
| O=c1c2sc3nccc(NC4CC4)c3c2ncn1-c1ccc(Br)cc1 [28GY] |  | < 50 |  |
| Cc1ccc(-n2cnc3c(sc4nccc(NC5CC5)c43)c2=O)cc1 [28AP] | < 50 |  |  |
| CN(N)c1ccnc2sc3c(=O)n(-c4ccc(Cl)cc4)cnc3c12 [28DM] |  | > 1000 |  |
| C=C(C)CNc1ccnc2sc3c(=O)n(-c4ccc5c(c4)OCO5)cnc3c12 [28FG] |  | 150 to 1000 |  |
| C=CCN(C)c1ccnc2sc3c(=O)n(-c4ccc(Br)cc4)cnc3c12 [28EB] |  | 50 to 150 |  |
| Cc1ccc(-n2cnc3c(sc4nc(C(C)C)cc(N(C)C)c43)c2=O)cc1 [87A] | 150 to 1000 |  |  |
| CN(C)c1ccnc2sc3c(=O)n(CCN4CCCCC4)cnc3c12 [15O] | > 1000 |  |  |
| Cc1ccc(-n2cnc3c(sc4nc(N5CCOCC5)cc(N(C)C)c43)c2=O)cc1 [59C] | > 1000 |  |  |
| COc1ccc(-n2cnc3c(sc4nccc(NC5CC5)c43)c2=O)cc1F [28HE] |  | < 50 |  |
| O=c1c2sc3nccc(Nc4ccccc4)c3c2ncn1C1CCCCC1 [28H] | > 1000 |  |  |
| CN(C)c1c[n+]([O-])cc2sc3c(=O)n(-c4ccc(Cl)cc4)cnc3c12 [compound 53] | > 1000 |  |  |
| C=C(C)CNc1ccnc2sc3c(=O)n(-c4ccc(OC)c(F)c4)cnc3c12 [28FE] |  | 50 to 150 |  |
